Measurements published in patent publication US20260285866A1, “MODULATORS OF TRPML, THEIR COMPOSITIONS AND METHODS OF USE” (Caraway Therapeutics, Inc., priority 2024, published 2026).

Assays:
TRPMLs = settings: high concentrations needed; background statement; cited from earlier work
Human TRPML1 = Human TRPML1 (Homo sapiens, UniProt Q9GZU1, L15A/L16A/L577A/L578A); assay: Fluorescent TRPML1 assay (Fluo4-AM, HEK-293 Trex cells expressing hTRPML1); format: cell-based; settings: fluorescent calcium assay, doxycycline-induced hTRPML1
Method in brief: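 Doxycycline-induced (0.5 μg/mL) HEK-293 Trex cells stably expressing surface-targeted mutant hTRPML1, loaded with 1 μM Fluo4-AM, then suspended in modified Ringer's with 10 mM calcium and added to compounds (20 μM to 6 nM final, half-log steps, triplicate). Fluorescence read at ex 480/em 540; percent activity versus plate controls, EC50 by non-linear regression.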

Human TRPML3 = target: T1, Human TRPML3 (Homo sapiens, UniProt Q8TDD5); assay: Fluorescent TRPML3 assay (as for TRPML1); format: cell-based; settings: fluorescent calcium assay as for TRPML1, TRPML3 subtype
T1 construct: expressed in transfected cells
T1 sequence (Q8TDD5 1-553): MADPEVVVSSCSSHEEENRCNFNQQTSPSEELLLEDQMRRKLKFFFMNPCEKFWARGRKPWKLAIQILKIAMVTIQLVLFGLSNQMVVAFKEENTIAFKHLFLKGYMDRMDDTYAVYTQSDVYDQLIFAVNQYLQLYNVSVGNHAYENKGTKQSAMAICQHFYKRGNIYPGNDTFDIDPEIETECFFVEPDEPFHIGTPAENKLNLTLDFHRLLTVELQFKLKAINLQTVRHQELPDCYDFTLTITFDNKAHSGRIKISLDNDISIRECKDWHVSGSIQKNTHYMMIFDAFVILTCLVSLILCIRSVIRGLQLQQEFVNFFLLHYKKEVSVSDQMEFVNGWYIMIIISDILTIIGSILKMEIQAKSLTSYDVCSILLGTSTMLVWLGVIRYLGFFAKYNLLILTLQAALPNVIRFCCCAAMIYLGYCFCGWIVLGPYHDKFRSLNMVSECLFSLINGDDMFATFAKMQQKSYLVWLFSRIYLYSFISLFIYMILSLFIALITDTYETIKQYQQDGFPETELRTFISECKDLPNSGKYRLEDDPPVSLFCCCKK
Method in brief: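 Tet-inducible HEK-293 Trex cells expressing human TRPML2 or TRPML3, induced overnight with 0.5 μg/mL doxycycline, loaded with 1 μM Fluo4-AM and suspended in Ringer's solution with 10 mM calcium. Compounds tested in triplicate from 20 μM to 6 nM final in half-log steps; fluorescence at 480/540 nm. EC50 by non-linear regression, binned A–D.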

Human TRPML2 = target: T2, Human TRPML2 (Homo sapiens, UniProt Q8IZK6); assay: Fluorescent TRPML2 assay (as for TRPML1); format: cell-based; settings: fluorescent calcium assay as for TRPML1, TRPML2 subtype
T2 construct: expressed in transfected cells
T2 sequence (Q8IZK6 1-566): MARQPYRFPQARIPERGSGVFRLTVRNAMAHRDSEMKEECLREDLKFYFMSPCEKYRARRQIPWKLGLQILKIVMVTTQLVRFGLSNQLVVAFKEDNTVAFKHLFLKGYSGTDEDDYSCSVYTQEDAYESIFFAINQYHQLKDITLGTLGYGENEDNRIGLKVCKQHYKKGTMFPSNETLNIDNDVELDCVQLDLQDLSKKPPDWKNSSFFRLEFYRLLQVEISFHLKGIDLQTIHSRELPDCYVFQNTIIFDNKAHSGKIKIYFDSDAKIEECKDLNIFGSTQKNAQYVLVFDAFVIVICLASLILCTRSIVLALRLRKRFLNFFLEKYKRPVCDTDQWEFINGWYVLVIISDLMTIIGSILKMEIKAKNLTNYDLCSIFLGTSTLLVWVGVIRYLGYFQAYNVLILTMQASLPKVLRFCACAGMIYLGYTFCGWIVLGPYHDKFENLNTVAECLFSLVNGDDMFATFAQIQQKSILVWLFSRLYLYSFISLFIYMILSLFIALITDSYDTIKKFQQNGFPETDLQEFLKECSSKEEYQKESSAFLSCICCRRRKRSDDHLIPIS
Experimental: HEK-293 Trex cells were stably transfected with a construct consisting of the human coding sequence for TRPML1 cloned into the tet-inducible plasmid pCDNA5 T/O. Mutations were introduced into the TRPML1 sequence to facilitate expression on the cell surface (Silvia Vergarajauregui, Rosa Puertollano Traffic. 2006 March; 7(3): 337-353). Briefly, the cells are cultured in 150 mm round tissue culture dishes containing 20 mL of media. The day before the assay the cells are rinsed with DPBS-Ca-Mg and then treated briefly with Trypsin-EDTA. The Trypsin-EDTA is diluted with growth media, and cells are counted. 38×10^6 cells are re-plated into 150 mm round tissue culture dishes in media containing 0.5 μg/mL doxycycline to induce expression of hTRPML1.
The day of the experiment cells are lifted from the plates as above and collected by centrifugation. The cells are then suspended in dye loading buffer consisting of Ringer's solution supplemented with 0.1% Pluronic Acid and 1 micromolar Fluo4-AM dye. Cells are loaded for ~60 minutes in the dark with occasional mixing. The cells are collected by centrifugation, the loading media aspirated, and the cells resuspended in 25 mL Ringer's solution and incubated ~60 minutes in the dark. The cells are again collected by centrifugation, rinsed in Ringer's Solution and resuspended to 0.2×10^6 cells/mL in modified Ringer's solution containing 10 mM calcium.
Compounds are dissolved to a concentration of 10 millimolar with DMSO. Compound plates are created by dispensing compounds into 384 well black wall clear bottom plates (Greiner 781091). Positive and negative controls are included on each plate. Typically, different amounts of each compound are tested ranging from 100 nanoMoles (20 micromolar final concentration) decreasing in half-log steps to 31 picoMoles (6 nanomolar final concentration). Each concentration is typically tested in triplicate.
50 microliters of dye-loaded cells are dispensed into each well of the compound assay plate created above. The fluorescence in each well is then determined with an excitation wavelength of 480 nm and an emission wavelength of 540 nm using either a Molecular Devices SpectraMax multimode plate reader or a Hamamatsu FDSS/uCell plate imager.
The resulting fluorescence for each well is exported as an ascii file and loaded into our LIMS for analysis. The percent activity of each compound at each concentration is determined by comparison to the positive and negative control wells included in each plate.
Assays for TRPML2 and TRPML3 were performed as above for TRPML1, by substituting the appropriate TRPML2 or TRPML3 subtype for the TRPML1.
EC50 values were calculated using a non-linear regression of Prism. In the table, “A” indicates an EC50 of less than 100 nM, “B” indicates an EC50 range from 100 nM to 500 nM: “C” indicates an EC50 range from 500 nM to 2 μM; and “D” indicates an EC50 greater than 2 μM.

Chain of Human TRPML1 (Q9GZU1 whole entry L15A/L16A/L577A/L578A): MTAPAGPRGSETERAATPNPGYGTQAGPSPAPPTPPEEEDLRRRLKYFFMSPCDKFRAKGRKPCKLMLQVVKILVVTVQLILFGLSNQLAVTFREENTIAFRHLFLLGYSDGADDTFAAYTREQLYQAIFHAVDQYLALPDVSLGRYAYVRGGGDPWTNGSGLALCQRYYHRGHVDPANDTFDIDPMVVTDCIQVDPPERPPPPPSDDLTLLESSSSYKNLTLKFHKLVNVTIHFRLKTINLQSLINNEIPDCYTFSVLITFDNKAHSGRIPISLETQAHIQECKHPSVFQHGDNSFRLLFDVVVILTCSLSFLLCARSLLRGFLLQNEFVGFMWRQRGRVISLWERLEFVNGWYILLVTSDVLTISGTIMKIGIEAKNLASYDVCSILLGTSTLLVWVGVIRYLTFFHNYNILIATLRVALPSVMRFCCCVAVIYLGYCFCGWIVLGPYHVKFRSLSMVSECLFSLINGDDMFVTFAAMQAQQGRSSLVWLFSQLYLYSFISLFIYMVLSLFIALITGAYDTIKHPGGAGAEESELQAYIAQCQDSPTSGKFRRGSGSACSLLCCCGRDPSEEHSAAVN

EC50 (Human TRPML1) [nM] | EC50 (Human TRPML3) [nM] | EC50 (Human TRPML2) [nM] | Structure (SMILES) | concentration needed to effectively activate TRPMLs (TRPMLs)
 |  |  | CC1CC(C)(C)N(C(=O)CN2C(=O)c3ccccc3C2=O)c2ccccc21 (stereo not shown) [ML-SA1, Mucolipin Synthetic Agonist I] | ~ 10 μM
< 100 | 500 to 2000 | 500 to 2000 | CCOC(C)(C)C(=O)N1C[C@H](C)N(c2ncnc3c2c(C2CC2)cn3-c2cc(C#N)ccn2)C[C@H]1C [Compound 172, 2-(5-cyclopropyl-4-((2S,5R)-4-(2-ethoxy-2-methylpropanoyl)-2,5-dimethylpiperazin-1-yl)-7H-pyrrolo[2,3-d]pyrimidin-7-yl)isonicotinonitrile] | 
< 100 | 100 to 500 | 500 to 2000 | C[C@@H]1CN(c2ncnc3c2c(-c2ccncc2)cn3-c2cc(C#N)ccn2)[C@@H](C)CN1C(=O)C1(O)CCCCC1 [Compound 151, 2-(4-((2S,5R)-4-(1-hydroxycyclohexane-1-carbonyl)-2,5-dimethylpiperazin-1-yl)-5-(pyridin-4-yl)-7H-pyrrolo[2,3-d]pyrimidin-7-yl)isonicotinonitrile] | 
< 100 | < 100 | < 100 | CCOC(C)(C)C(=O)N1C[C@H](C)N(c2ncnc3c2c(-c2ccccc2F)cn3-c2cc(C#N)ccn2)C[C@H]1C [Compound 164, 2-(4-((2S,5R)-4-(2-ethoxy-2-methylpropanoyl)-2,5-dimethylpiperazin-1-yl)-5-(2-fluorophenyl)-7H-pyrrolo[2,3-d]pyrimidin-7-yl)isonicotinonitrile] | 
